The values below are quoted from earlier work in US20110236307A1, “IN VIVO IMAGING METHOD” (priority 2008, published 2011).

This data set deals with protein deposition in PD. As to conditions: PD patients, brain.

For the compound `[11CH3]Nc1ccc(-c2nc3ccc(O)cc3s2)cc1` [[^11C]PIB, ^11C-6-OH-benzothiazole], the “in vivo binding pattern” value was “decreased from the brainstem to the cortical areas”.
